The supplement of paper PMC10933113
± gives the uncertainty stated by the source.

Tests used:
[1] = system: THP-1; assay: efficacy of IL-8 induction relative to DMSO (% activity); higher = stronger induction; settings: exposure time: 18 h
[2] = system: cysteine peptide Ac-RFAACAA-COOH; assay: efficacy of cysteine peptide change (negative = depletion) (% activity); higher = less depletion; settings: incubation time: 24 h
[3] = system: KeratinoSens (HaCaT ARE-luciferase) cells; assay: efficacy of ARE luciferase induction relative to DMSO (% activity over DMSO); higher = stronger induction; settings: exposure time: 24 h
[4] = system: lysine peptide Ac-RFAAKAA-COOH; assay: efficacy of lysine peptide change (negative = depletion) (% activity); higher = less depletion; settings: incubation time: 24 h
[5] = system: KeratinoSens (HaCaT ARE-luciferase) cells; assay: cytotoxicity AC50 (CellTiter-Fluor viability); higher = less cytotoxic; settings: exposure time: 24 h

| Compound | efficacy of IL-8 induction [1] | efficacy of cysteine peptide change [2] | efficacy of ARE luciferase induction [3] | efficacy of lysine peptide change [4] | cytotoxicity AC50 [5] [µM] |
| --- | --- | --- | --- | --- | --- |
| CC(=O)C1(C)CC2=C(CCCC2(C)C)CC1C (configuration not stated) | 5.26 ± 9.1 | -16.5 ± 5.3 | 13.2 ± 8.8 | 3.3 ± 5.7 |  |
| CC[C@H]1CC[C@H](NCc2cc3c(cc2OC)[C@H]2C[C@H]2C(=O)N3C)[C@H](c2ccccc2)N1 | 18.9 ± 3.4 |  | 82.8 ± 33 |  | 26.4 ± 4.7 |
| CC(C)CC(NC(=O)OCC1c2ccccc2-c2ccccc21)C(=O)O (stereo in doubt) [N-(9-Fluorenylmethoxycarbonyl)-L-leucine] | 6.39 ± 11 | -6.72 ± 6 | 65 ± 53 | 0.13 ± 15 |  |
| c1ccc(-c2cccc(-c3ccccc3)c2)cc1 [1,1':3',1''-Terphenyl] | 9.01 ± 8.6 | -4.8 ± 8.3 | 21.9 ± 16 | 7.59 ± 13 |  |
| c1ccc(SCCSc2ccccc2)cc1 [1,2-Bis(phenylthio)ethane] | 0 | 3.83 ± 6.6 | 40.6 ± 11 | -9.19 ± 10 |  |
| O=[N+]([O-])c1cc([N+](=O)[O-])c2ccccc2c1 [1,3-Dinitronaphthalene] | 0 | -32.4 ± 17 | 29.3 ± 10 | -15.1 ± 14 |  |
| CCC(=O)C=Cc1ccc(OC)cc1 [1-(4-Methoxyphenyl)-1-pentene-3-one] | 0 | -4.91 ± 8.5 | -11.5 ± 51 | 29.4 ± 1.8 |  |
| CC(C)(C)C(=O)CCl [1-Chloro-3,3-dimethyl-butan-2-one] | 5.09 ± 4.6 | -43.1 ± 7.6 | 26.8 ± 9.2 | -4.45 ± 16 |  |
| CCCCCCCCCCCCO [1-Dodecanol] | 0 | 0 | 9.49 ± 13 | -9.21 ± 17 |  |
| c1ccc(-c2ccccn2)nc1 [2,2'-Dipyridyl] | 0 | -15.1 ± 3.5 | 45.2 ± 39 | -0.86 ± 12 |  |
| O=[N+]([O-])c1cc(Cl)c(Cl)c(Cl)c1Cl [2,3,4,5-Tetrachloronitrobenzene] | 49.5 ± 10 | -5.15 ± 8.9 | 42.4 ± 36 | -3.6 ± 17 | 44.9 ± 5.2 |
| Nc1ccc(Cl)cc1Cl [2,4-Dichloroaniline] | 8.9 ± 7.7 | 0 | 3.01 ± 5.2 | 6.42 ± 18 |  |
| CC(C)c1ccc2cc(C(C)C)ccc2c1 [2,6-Diisopropylnaphthalene] | 2.46 ± 4.3 | 7.33 ± 6.5 | 28.7 ± 11 | 1.65 ± 26 |  |
| CCCCCCCCCCCCOCCO [2-(Dodecyloxy)ethanol] | -3.05 ± 5.3 | 73.8 | 8.82 ± 15 | 3.27 ± 16 |  |
| Oc1ccc(-c2ccccc2)cc1Cl [2-Chloro-4-phenylphenol] | 3.65 ± 6.3 | 0.73 ± 13 | 22.4 ± 9.2 | 3.75 ± 3.3 |  |
| CCCCCCC(C)O (configuration not stated) [2-Octanol] | 0 | 0 | 0 | -5.58 ± 9.7 |  |
| CCCCOCCOCCOCCO [2-[2-(2-Butoxyethoxy)ethoxy]ethanol] | 3.34 ± 5.8 | 37.2 ± 7.3 | 75.4 ± 120 | 207 ± 33 |  |
| COc1ccc(O)c(C(C)(C)C)c1 [2-tert-Butyl-4-methoxyphenol] | 1.96 ± 3.4 | -37.3 ± 14 | 4.91 ± 25 | 5.8 ± 5 |  |
